# Ends that are not written are not given here.
# Tested on: anti-SP-4 antiserum
# Assay: ELISA for immunological cross-reactivity with anti-SP-4 antiserum
# Format: binding, rabbit
# Conditions: ELISA plates coated with LDL or peptide, 100 ng per well
# Method: To determine whether the molecular conformation or structure of the synthetic apoB peptides was analogous to the conformation of the apoB moiety of LDL, a polyclonal antiserum was raised to each peptide and its ability to bind LDL tested. Antiserum raised to human LDL was used as the control. To produce anti-synthetic peptide antisera, purified synthetic peptide was dissolved in PBS, pH 7.4 at a concentration of 1 mg/ml. The peptide solution was mixed with an equal volume of complete Freund's adjuvant and vortexed thoroughly until a thick emulsion was produced. New Zealand White rabbits (Millbrook Farms, Amherst, Mass.) were injected with a total of 0.5 mg synthetic peptide administered subcutaneously in the four dorsal quadrants. The rabbits were given a boost (injected at the same sites) with 0.5 mg peptide emulsified in incomplete Freund's adjuvant 2-3 weeks later. Eight to ten days after the first boost, the animals were given a second, identical boost and were bled of 30 ml 8 to 10 days later. To test for immunological cross-reactivity microtiter plates (Immulon II Dynatech Labs, Chantilly, Va.) were coated with the purified synthetic peptide or LDL by an overnight incubation at 4° C. with 100 ng peptide per well in 50 mM carbonate, pH 9.6, and blocked for nonspecific binding with an additional overnight incubation with phosphate-buffered saline, pH 7.4 (PBS), 1% bovine serum albumin (BSA). Control wells were coated with BSA alone. After washing twice with PBS, the wells were filled with serial dilutions (1:10 to 1:100,000 made in PBS, 3% BSA) of a rabbit polyclonal antibody generated against the synthetic peptide(s) and incubated for 45 minutes at room temperature. Following thorough washing (3× with PBS, 0.1% BSA), the wells were filled with a 1:2000 dilution of goat anti-rabbit IgG-horseradish peroxidase conjugate (Atlantic Antibodies, Scarborough, Me.). After a final wash, the wells were filled with 3,3'-5,5'-tetramethybenzidine (TMB) microwell peroxidase substrate (Kirkegaard and Perry Labs, Gaithersburg, Md.) and read at 650 nm every two minutes on an ELISA-5 automated plate reader (Physica, New York, N.Y.). Results (see, e.g., FIGS. 4 and 5) are expressed as the initial velocity of substrate conversion (change in OD650 /hr), which is determined by a linear regression of 15 data points per well. Each data point represents the average of three measured data points from the same plate, run at the same time.
row,Substance,Binding of anti-SP-4 antiserum to coated antigen
1,"Ac-YKLALEAARLLADAEGAK-NH2 [SP-6A, CH3 CONH-Tyr-Lys-Leu-Ala-Leu-Glu-Ala-Ala-Arg-Leu-Leu-Ala-Asp-Ala-Glu-Gly-Ala-Lys-CONH2]",shown to bind
2,"Ac-YKLALEAARLLANAEGAK-NH2 [SP-8A, CH3 CONH-Tyr-Lys-Leu-Ala-Leu-Glu-Ala-Ala-Arg-Leu-Leu-Ala-Asn-Ala-Glu-Gly-Ala-Lys-CONH2]",shown to bind
3,"Ac-YRALVDTLK-NH2 [SP-14A, CH3 CONH-Tyr-Arg-Ala-Leu-Val-Asp-Thr-Leu-Lys-CONH2]",shown to bind
4,"Ac-YRALVDTLKFVTQAEGAK-NH2 [SP-4A, CH3 CONH-Tyr-Arg-Ala-Leu-Val-Asp-Thr-Leu-Lys-Phe-Val-Thr-Gln-Ala-Glu-Gly-Ala-Lys-CONH2]",shown to bind
5,"Ac-YRALVDYLKFVTQL-NH2 [SP-12A, CH3 CONH-Tyr-Arg-Ala-Leu-Val-Asp-Tyr-Leu-Lys-Phe-Val-Thr-Gln-Leu-CONH2]",shown to bind
6,"YKLALEAARLLADAEGAK-NH2 [SP-6, H2 N-Tyr-Lys-Leu-Ala-Leu-Glu-Ala-Ala-Arg-Leu-Leu-Ala-Asp-Ala-Glu-Gly-Ala-Lys- CONH2]",shown to bind
7,"YKLALEAARLLANAEGAK-NH2 [SP-8, H2 N-Tyr-Lys-Leu-Ala-Leu-Glu-Ala-Ala-Arq-Leu-Leu-Ala-Asn-Ala-Glu-Gly-Ala-Lys- CONH2]",shown to bind
8,"YRALVDTLKFVTQAEGAK-NH2 [SP-4, NH2 -Tyr-Arg-Ala-Leu-Val-Asp-Thr-Leu-LYs-Phe-Val-Thr-Gln-Ala-Glu-Gly-Ala-Lys-CONH2]",shown to bind

# Tested on: not listed separately
# Assay: Plasma decay of 125I-labelled synthetic peptide after injection into the marginal ear vein
# Format: in vivo, rabbit
# Conditions: at four hours
# Method: Each labelled synthetic peptide preparation (containing, for example, 150 to 400 or more μCi of ^125 I-labelled peptide) in column elution buffer was injected into the marginal ear vein of the ballooned and healing New Zealand white rabbits or WHHL rabbits. Serial blood samples were obtained from the opposite ear during the ensuing 0-24 hours and were analyzed for radioactivity. The labelled peptide concentrations in the blood samples that were withdrawn over the first 10 minutes after injection were extrapolated to zero time to determine the time zero radioactivity in the calculation of average plasma radioactivity. […] Peptides SP15a, SP17, SP19a, SP21a, SP28, SP34a, and SP30 were cleared rapidly from the plasma with half-lives of about one minute or less; after one hour, the plasma levels were less than 10% of the injected dose and fell by an additional 1% over the next three hours. Peptides SP15a, SP17, SP21a, SP28, SP34a, and SP30 leveled off to a plasma level of 3-6%; peptide SP19a cleared more quickly and leveled off to a concentration of 0.3% (at four hours).
# Control peptides used were SP-2 (part of the heparin and LDL receptor binding site of apolipoprotein E) and SP-11A which is a receptor and heparin binding domain of apolipoprotein B. To compare the relative accumulation of the ^125 I-labelled synthetic peptides in the aorta and adrenal gland, it was necessary to correct for differences in mean plasma concentration of the labelled compounds. The mean concentration of synthetic peptide-associated ^125 I radioactivity was calculated by numerical integration of the plasma decay curves and division by the time since injection of the isotope.
row,Substance,Plasma level at which the peptide leveled off
1,"Ac-YAKFRETLEDTRDRMY-NH2 [SP-15a, CH3 CONH-Tyr-Ala-Lys-Phe-Arg-Glu-Thr-Leu-Glu-Asp-Thr-Arg-Asp-Arg-Met-Tyr-CONH2]",3-6%
2,"Ac-YRALVDTEFKVKQEAGAK-NH2 [SP-21a, CH3 CONH-Tyr-Arg-Ala-Leu-Val-Asp-Thr-Glu-Phe-Lys-Val-Lys-Gln-Glu-Ala-Gly-Ala-Lys-CONH2]",3-6%
3,"Ac-YRALVDTLKFVTEQAKGA-NH2 [SP-19a, CH3 CONH-Tyr-Arg-Ala-Leu-Val-Asp-Thr-Leu-Lys-Phe-Val-Thr-Glu-Gln-Ala-Lys-Gly-Ala-CONH2]",0.3%
4,Ac-YVLDEFREKLNEELEALKQK-NH2 [SP-34a],3-6%
5,"YAALDLNAVANKIADFEL-NH2 [SP-17, H2 N-Tyr-Ala-Ala-Leu-Asp-Leu-Asn-Ala-Val-Ala-Asn-Lys-Ile-Ala-Asp-Phe-Glu-Leu- CONH2]",3-6%
6,"YVGVAPGVGVAPGVGVAPG [SP-28, H2 N-Tyr-Val-Gly-Val-Ala-Pro-Gly-val-Gly-Val-Ala-Pro-Gly-Val-Gly-Val-Ala-Pro- Gly-OH]",3-6%
7,"YVPGVGVPGVGVPGVGVPGVG-NH2 [SP-30, H2 N-Tyr-Val-Pro-Gly-Val-Gly-Val-Pro-Gly-Val-Gly-Val-Pro-Gly-Val-Gly-Val-Pro- Gly-Val-Gly-CONH2]",3-6%

# — US5955055A, “Synthetic peptides for arterial imaging at vascular imaging sites” (New England Deaconess Hospital Corporation, priority 1995, dated 1999)
